Patent publication US10842801B2, “Optimizing mifepristone absorption” (Corcept Therapeutics, Inc., priority 2011, dated 2020)
Like-named read-outs stand apart in the source and are kept apart here.

What was measured:
[1] = Plasma drug concentration in different patients given the same dose of mifepristone; type: in vivo, human
[2] = Food effect studies: pharmacokinetics of mifepristone under fasting and fed conditions; type: in vivo, human; settings: for AUC(0-inf) / Cmax / AUC(0-t): human, plasma, oral; for AUC(0-inf): read-out: AUCinf Geo Mean; for Cmax: read-out: Cmax Geo Mean; for AUC(0-t): read-out: AUC0-24 Geo Mean
Description: Blood is collected from a patient in a vacutainer containing sodium heparin. The blood is centrifuged and the resulting plasma frozen at an appropriate temperature until assay. In some embodiments, the temperature is about -70° C. In other embodiments, other blood components can be collected and stored. Prior to analysis, the plasma is thawed and a fraction of the plasma is mixed with an internal standard in a solvent such as acetonitrile, to obtain a fixed concentration of the standard. In some embodiments, the internal standard can be mifepristone-d4. […] Base is then added to the sample solution. The base can be any amine or ammonium base, such as ammonium hydroxide. […] Solvent is then added to the solution and the mifepristone (along with the internal standard) are extracted from the plasma. […] Following separation and concentration of the organic layer, the sample is reconstituted in a solvent mixture comprising water, acetonitrile and formic acid. The ratio of the solvent components can vary. In some embodiments, the solvent mixture is water:acetonitrile:formic acid (75:25:0.1, v/v/v). […] The sample can then be analyzed by reverse-phase high pressure liquid chromatography (HPLC). In some embodiments, the reverse-phase HPLC is performed using a water:acetonitrile:formic acid (60:40:0.1) mobile phase (isocratic) at a flow rate of 0.3 mL/min. […] The reverse-phase HPLC column can be a phenyl column maintained at 50° C. […] Following elution, the mobile phase can be nebulized using heated nitrogen in a Z-spray source/interface and the ionized compounds detected using a tandem quadrupole mass spectrometer. Mifepristone (molecular weight of 430 g/mol) can be detected at m/z 372.30. The internal standard mifepristone-d4 can be detected at m/z 376.30. The ratio of the mifepristone peak height to the peak height for the internal standard can then be calculated. The plasma concentration of mifepristone is then calculated by comparing the experimental ratio to a standard curve of mifepristone:mifepristone-d4 peak height ratio v. mifepristone concentration. […] In all studies, healthy adults were randomized to a sequence of administration of mifepristone drug product under fasting and fed conditions. […] The test group was comprised of 10 healthy adult subjects who were randomized to receive mifepristone at 600 mg/day for up to 14 days in Cohort 3 of Study CORT-108297-102. For this comparison the PK data after 7 days of dosing were used. […] The meal was given every day at approximately 30 min prior to receiving mifepristone, which was dosed as two 300 mg tablets once daily.

[3] = 600 mg single dose, Fed (50% fat) vs Fast, Study 12
[4] = 600 mg/day for 7 days following a breakfast of 34% fat, Day 7
[5] = 600 mg/day x 7 days, Fed (34% fat) vs Fast, C3
[6] = 1200 mg single dose, Fed (50% fat) vs Fast, Study 20
[7] = 1200 mg/day x 7 days, Fed (34% fat) vs Fast, Study 27
[8] = 1200 mg/day, high fat (50%) meal on day 8 after 7 days with typical fat meals
[9] = 600 mg, 600 mg single dose, Fast, healthy adults, Study 12
[10] = 600 mg, 600 mg single dose, Fed 50% fat, healthy adults, Study 12
[11] = 600 mg/day, 600 mg/day x 7 days, Fast, healthy adults, historical Studies C-1073-05 and C-1073-300 Part II (reference for C3)
[12] = 600 mg/day, 600 mg/day x 7 days, Fed 34% fat, healthy adults, Cohort 3 of CORT-108297-102
[13] = 1200 mg, 1200 mg single dose, Fast, healthy adults, Study 20
[14] = 1200 mg, 1200 mg single dose, Fed 50% fat, healthy adults, Study 20
[15] = 1200 mg/day, 1200 mg/day x 7 days, Fed 34% fat, healthy adults, Study 27

CC#C[C@]1(O)CC[C@H]2[C@@H]3CCC4=CC(=O)CCC4=C3[C@@H](c3ccc(N(C)C)cc3)C[C@@]21C [Mifepristone, 17-beta-hydroxy-11-beta-(4-dimethyl-aminophenyl)-17-alpha-(1-propynyl)-estra-4,9-dien-3-one]
difference in plasma drug concentration from one patient to another [1]: ≤ 800%
AUCinf Ratio of Geometric Means [2, 3]: 1.29
Cmax Ratio of Geometric Means [2, 3]: 1.19
increase in AUC0-24 as compared to the same dose in the fasted state [2, 4]: 44%
increase in Cmax as compared to the same dose in the fasted state [2, 4]: 34%
AUC0-24 Ratio of Geometric Means [2, 5]: 1.44
Cmax Ratio of Geometric Means [2, 5]: 1.34
AUCinf Ratio of Geometric Means [2, 6]: 1.42
Cmax Ratio of Geometric Means [2, 6]: 1.30
mean increase in mifepristone exposure relative to the fasted state ([2]; 1200 mg/day for 7 days with typical fat meals vs 7 days fasted): 65%
Cmax Geo Mean ([2]; 1200 mg/day x 7 days, Fast, healthy adults, Study 27): 3223 ng/mL
AUC0-24 Ratio of Geometric Means [2, 7]: 1.65
Cmax Ratio of Geometric Means [2, 7]: 1.56
effect on Cmax of switching to a high fat meal [2, 8]: little or no effect
effect on exposure of switching to a high fat meal [2, 8]: little or no effect
AUC(0-inf) [2, 9]: 104000 ng·h/mL
Cmax [2, 9]: 2310 ng/mL
AUC(0-inf) [2, 10]: 134000 ng·h/mL
Cmax [2, 10]: 2740 ng/mL
AUC(0-t) [2, 11]: 43600 ng·h/mL
Cmax [2, 11]: 3040 ng/mL
AUC(0-t) [2, 12]: 62600 ng·h/mL
Cmax [2, 12]: 4070 ng/mL
AUC(0-inf) [2, 13]: 134000 ng·h/mL
Cmax [2, 13]: 2830 ng/mL
AUC(0-inf) [2, 14]: 191000 ng·h/mL
Cmax [2, 14]: 3660 ng/mL
AUC(0-t) ([2]; 1200 mg/day, 1200 mg/day x 7 days, Fast, healthy adults, Study 27): 44200 ng·h/mL
AUC(0-t) [2, 15]: 72800 ng·h/mL
Cmax [2, 15]: 5040 ng/mL
dose proportionality of exposure and Cmax ([2]; multiple dosing, doses above 600 mg, fasted): strong lack of dose proportionality
